Laboratory results published in the NIST ThermoML archive (doi:10.1016/j.jct.2006.10.008).
Numbers after ± are expanded uncertainties.

Experiments:
[1] = xn = mol fraction of the nth substance listed; settings: 298.15 K, 101 kPa, Liquid
[2] = excess molar enthalpy (molar enthalpy of mixing); xn = mol fraction of the nth substance listed; settings: 298.15 K, 101 kPa, Liquid, Calvet calorimetry

ClCCCCCCl [1,5-dichloropentane] + CCOC=O
Settings | excess molar enthalpy [kcal/mol] | mass density [kg/m3]
[1], x2 = 0.0955 | – | 1084.27 ± 0.49
[1], x2 = 0.1752 | – | 1074.48 ± 0.47
[1], x2 = 0.2534 | – | 1064.51 ± 0.45
[1], x2 = 0.3284 | – | 1054.28 ± 0.43
[1], x2 = 0.3985 | – | 1044.1 ± 0.41
[1], x2 = 0.4628 | – | 1034.31 ± 0.39
[1], x2 = 0.5327 | – | 1023.03 ± 0.37
[1], x2 = 0.5897 | – | 1013.34 ± 0.35
[1], x2 = 0.6456 | – | 1003.36 ± 0.33
[1], x2 = 0.698 | – | 993.61 ± 0.33
[1], x2 = 0.7473 | – | 983.9 ± 0.34
[1], x2 = 0.7941 | – | 974.37 ± 0.35
[1], x2 = 0.8401 | – | 964.52 ± 0.36
[1], x2 = 0.8829 | – | 954.89 ± 0.38
[1], x2 = 0.9235 | – | 945.49 ± 0.39
[1], x2 = 0.9625 | – | 936.01 ± 0.4
[2], x2 = 0.1024 | 0.0337 ± 0.000454 | –
[2], x2 = 0.2043 | 0.0534 ± 0.000598 | –
[2], x2 = 0.2974 | 0.0705 ± 0.000741 | –
[2], x2 = 0.3848 | 0.0801 ± 0.000813 | –
[2], x2 = 0.4598 | 0.0825 ± 0.000837 | –
[2], x2 = 0.5273 | 0.081 ± 0.000813 | –
[2], x2 = 0.5845 | 0.0767 ± 0.000789 | –
[2], x2 = 0.6305 | 0.071 ± 0.000741 | –
[2], x2 = 0.6809 | 0.062 ± 0.000669 | –
[2], x2 = 0.7286 | 0.0551 ± 0.000621 | –
[2], x2 = 0.7798 | 0.0454 ± 0.00055 | –
[2], x2 = 0.8289 | 0.0355 ± 0.000478 | –
[2], x2 = 0.8791 | 0.0261 ± 0.000406 | –
[2], x2 = 0.9215 | 0.0166 ± 0.000335 | –
[2], x2 = 0.9634 | 0.0075 ± 0.000263 | –

ClCCCCCCl [1,5-dichloropentane] + CCCCOC=O
Settings | excess molar enthalpy [kcal/mol] | mass density [kg/m3]
[1], x2 = 0.0753 | – | 1081.49 ± 0.48
[1], x2 = 0.1366 | – | 1070.16 ± 0.46
[1], x2 = 0.2613 | – | 1046.7 ± 0.41
[1], x2 = 0.3251 | – | 1034.45 ± 0.39
[1], x2 = 0.3849 | – | 1022.81 ± 0.37
[1], x2 = 0.4446 | – | 1011 ± 0.34
[1], x2 = 0.5039 | – | 999.1 ± 0.32
[1], x2 = 0.6199 | – | 975.33 ± 0.35
[1], x2 = 0.676 | – | 963.59 ± 0.37
[1], x2 = 0.732 | – | 951.7 ± 0.38
[1], x2 = 0.787 | – | 939.85 ± 0.39
[1], x2 = 0.841 | – | 928.06 ± 0.41
[1], x2 = 0.8939 | – | 916.34 ± 0.42
[1], x2 = 0.9477 | – | 904.29 ± 0.44
[2], x2 = 0.0722 | 0.000717 ± 0.000191 | –
[2], x2 = 0.1463 | -0.000837 ± 0.000191 | –
[2], x2 = 0.2242 | -0.0054 ± 0.000239 | –
[2], x2 = 0.2989 | -0.0111 ± 0.000287 | –
[2], x2 = 0.3685 | -0.0188 ± 0.000335 | –
[2], x2 = 0.4319 | -0.0268 ± 0.000406 | –
[2], x2 = 0.4894 | -0.0315 ± 0.00043 | –
[2], x2 = 0.5395 | -0.0354 ± 0.000454 | –
[2], x2 = 0.5701 | -0.037 ± 0.000478 | –
[2], x2 = 0.5843 | -0.0369 ± 0.000478 | –
[2], x2 = 0.6266 | -0.0344 ± 0.000454 | –
[2], x2 = 0.6861 | -0.0311 ± 0.00043 | –
[2], x2 = 0.7462 | -0.0271 ± 0.000406 | –
[2], x2 = 0.8107 | -0.0216 ± 0.000359 | –
[2], x2 = 0.8755 | -0.0156 ± 0.000311 | –
[2], x2 = 0.9382 | -0.00894 ± 0.000263 | –

ClCCCCCCl [1,5-dichloropentane] + COC=O
Settings | excess molar enthalpy [kcal/mol] | mass density [kg/m3]
[1], x2 = 0.1169 | – | 1086.48 ± 0.49
[1], x2 = 0.2211 | – | 1077.88 ± 0.48
[1], x2 = 0.3054 | – | 1070.16 ± 0.46
[1], x2 = 0.3849 | – | 1062.32 ± 0.45
[1], x2 = 0.4622 | – | 1054 ± 0.43
[1], x2 = 0.5291 | – | 1046.2 ± 0.41
[1], x2 = 0.5925 | – | 1038.15 ± 0.4
[1], x2 = 0.6496 | – | 1030.38 ± 0.38
[1], x2 = 0.7004 | – | 1022.87 ± 0.37
[1], x2 = 0.7481 | – | 1015.48 ± 0.35
[1], x2 = 0.792 | – | 1008.18 ± 0.34
[1], x2 = 0.8333 | – | 1001 ± 0.32
[1], x2 = 0.8711 | – | 993.92 ± 0.33
[1], x2 = 0.9066 | – | 986.88 ± 0.34
[1], x2 = 0.94 | – | 980.05 ± 0.35
[1], x2 = 0.9705 | – | 973.45 ± 0.35
[2], x2 = 0.1095 | 0.0523 ± 0.000598 | –
[2], x2 = 0.2232 | 0.0884 ± 0.000884 | –
[2], x2 = 0.3299 | 0.1192 ± 0.00112 | –
[2], x2 = 0.4118 | 0.1356 ± 0.00124 | –
[2], x2 = 0.4763 | 0.1457 ± 0.00131 | –
[2], x2 = 0.5269 | 0.1465 ± 0.00131 | –
[2], x2 = 0.5661 | 0.1483 ± 0.00134 | –
[2], x2 = 0.613 | 0.1504 ± 0.00136 | –
[2], x2 = 0.6627 | 0.1476 ± 0.00134 | –
[2], x2 = 0.7114 | 0.1441 ± 0.00129 | –
[2], x2 = 0.7734 | 0.1339 ± 0.00122 | –
[2], x2 = 0.8369 | 0.1151 ± 0.0011 | –
[2], x2 = 0.88 | 0.09362 ± 0.000932 | –
[2], x2 = 0.9328 | 0.0669 ± 0.000741 | –
[2], x2 = 0.9693 | 0.0361 ± 0.000574 | –
